Assay results: patent US20130230459A1, “RADIOLABELLED mGluR2 PET LIGANDS” (Janssen Pharmaceuticals, Inc., priority 2010, published 2013)
Where “and” joins values, the source holds several entries; their conditions need not be identical. Identical values can stand only once.

Legend:
[1] = target: T1, mGluR2 (Rattus norvegicus, UniProt P31421); assay: MicroPET imaging: baseline, blocking and chase experiments; assay type: in vivo, Wistar rats
T1 construct: from tissue; host or cells: brain of living male Wistar rats (in vivo microPET)
Description: Imaging experiments were performed on a Focus™ 220 microPET scanner (Concorde Microsystems, Knoxyille, Tenn., USA) using healthy male Wistar rats. During all scan sessions, animals were kept under gas anesthesia (2.5% isoflurane in O2 at 1 L/min flow rate).
Dynamic scans of 90 min were acquired. After reconstruction of the images (filtered back projection), they were spatially normalized to an in-house created [^11C]raclopride template of the rat brain in Paxinos coordinates. Automated and symmetric volumes of interest (VOIs) were generated for different brain regions (striatum, cortex, cerebellum, hippocampus, hypothalamus, thalamus, substantia nigra, nucleus accumbens and lateral globus pallidus) from which time-activity curves (TAC) were constructed for each individual scan, using PMOD software (v 3.1, PMOD Technologies Ltd.). The radioactivity concentration in the different brain regions was expressed as SUV as a function of time p.i. of the radiotracer by normalization for body weight of the animal and injected dose.
Rats were injected with 30-60 MBq of high specific activity formulation of [^11C]B-4, [^11C]B-2, [^11C]B-7, or [^11C]B-10 via the tail vein under isoflurane anesthesia (2.5% in O2 at 1 L/min flow rate).
For pretreatment and displacement experiments, compound A, compound B or ritanserin were dissolved and administered in a vehicle containing 20% (2-hydroxypropyl)-β-cyclodextrine and two equivalents hydrochloric acid. The ritanserin solution was protected from light.
A self-blocking study was done by subcutaneous (s.c.) administration of the authentic reference material (for [^11C]B-4) at ˜30 min prior to the radiotracer injection. Displacement studies were performed by i.v. injection of compound B at dose 4, 1, 0.3 and 0.1 mg/kg, compound A at dose 1 mg/kg or ritanserin at dose 0.3 mg/kg. All chase compounds were injected ˜30 min after radiotracer injection. A wash-out period of at least four days was maintained between the different pretreatment and displacement studies.
[^11C]B-4 was evaluated in vivo in three rats which were scanned dynamically for 90 min using μPET. The first rat was used for a baseline scan. The second rat was pretreated with authentic reference material B-4 via s.c. administration (dose 10 mg/kg) at 30 min prior to tracer injection. The third rat was used in a chase experiment and was injected i.v. with authentic reference material B-4 (dose 3 mg/kg) 30 min after tracer injection.
Two rats were injected with high specific activity tracer ([^11C]B-4, [^11C]B-2, [^11C]B-7, or [^11C]B-10) and scanned dynamically for 90 min. The first rat was scanned baseline, the second rat was injected i.v. with compound B (dose 4 mg/kg) 30 min after tracer injection. Table 16 gives an overview of the maximum and minimum SUV values in the chase experiment for the four studied tracers.
A chase experiment was performed for [^11C]B-2 with different doses of compound B (4, 1, 0.3, 0.1 mg/kg). The chase compound was injected i.v. 30 min after tracer injection. Table 17 gives an overview of the average SUV values before and after injection of the chase for the total brain.

[2] = Biodistribution studies of 11C tracers; assay type: in vivo, Wistar rats; conditions: for SUV Blood / SUV Cerebellum / SUV Cerebrum total / SUV Cortex / SUV Hippocampus / SUV Striatum: normalized for body weight
Description: Biodistribution studies were carried out in healthy male Wistar rats (body weight 200-450 g) at 2 min, 30 min and 60 min post injection (p.i.) (n=3/time point). Rats were injected with about 11 MBq (2 min, 30 min analysis) or 22 MBq (60 min analysis) of the tracer via tail vein under anesthesia (2.5% isoflurane in O2 at 1 L/min flow rate) and sacrificed by decapitation at above specified time points. Blood and major organs were collected in tared tubes and weighed. The radioactivity in blood, organs and other body parts was measured using an automated gamma counter. The distribution of radioactivity in different parts of the body at different time points p.i. of the tracer was calculated and expressed as percentage of injected dose (% ID), and as percentage of injected dose per gram tissue (% ID/g) for the selected organs. % ID is calculated as cpm in organ/total cpm recovered. For calculation of total radioactivity in blood, blood mass was assumed to be 7% of the body mass.

T1 sequence (P31421 19-872): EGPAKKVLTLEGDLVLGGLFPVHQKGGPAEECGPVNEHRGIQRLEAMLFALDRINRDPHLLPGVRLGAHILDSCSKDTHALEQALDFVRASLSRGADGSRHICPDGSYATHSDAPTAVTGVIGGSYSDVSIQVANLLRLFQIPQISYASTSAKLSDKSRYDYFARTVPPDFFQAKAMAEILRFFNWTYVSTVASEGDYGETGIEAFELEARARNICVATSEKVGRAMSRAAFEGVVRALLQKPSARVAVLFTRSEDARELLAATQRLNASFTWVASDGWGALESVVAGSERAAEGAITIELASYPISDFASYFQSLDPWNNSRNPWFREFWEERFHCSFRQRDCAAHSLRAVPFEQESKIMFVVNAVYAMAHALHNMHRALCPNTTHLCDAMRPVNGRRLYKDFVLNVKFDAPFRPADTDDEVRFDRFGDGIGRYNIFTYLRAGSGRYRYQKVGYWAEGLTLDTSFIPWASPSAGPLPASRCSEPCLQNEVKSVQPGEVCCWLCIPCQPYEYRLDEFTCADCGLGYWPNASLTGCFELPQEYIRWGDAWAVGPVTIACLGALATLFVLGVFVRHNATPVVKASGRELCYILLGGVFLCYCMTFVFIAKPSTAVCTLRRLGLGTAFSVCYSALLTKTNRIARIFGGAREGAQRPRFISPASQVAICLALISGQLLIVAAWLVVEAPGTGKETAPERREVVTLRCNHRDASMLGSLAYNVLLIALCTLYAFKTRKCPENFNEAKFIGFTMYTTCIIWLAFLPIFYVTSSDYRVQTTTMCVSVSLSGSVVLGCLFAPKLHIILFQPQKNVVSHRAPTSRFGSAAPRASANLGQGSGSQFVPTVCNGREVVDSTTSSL

## [11CH3]Oc1ccc(F)c(F)c1C1CCN(c2ccn3c(CC4CC4)nnc3c2Cl)CC1 [[^11C]B-10, 8-chloro-3-(cyclopropylmethyl)-7-[4-[2,3-difluoro-6-[^11C]methoxyphenyl]-1-piperidinyl]-1,2,4-triazolo[4,3-a]pyridine]
[1]; chase compound B 4 mg/kg i.v.
  % reduction of SUV (total brain) due to chase: 58%
[1]; maximum SUV, chase compound B 4 mg/kg i.v. 30 min after tracer
  SUV (total brain) before chase: 1.2
[1]; minimum SUV, chase compound B 4 mg/kg i.v. 30 min after tracer
  SUV (total brain) after chase: 0.5
[2]; 2 min p.i.
  % ID Blood: 6.0 % ID and 6.0 ± 1.3 % ID
  % ID Carcass: 38.5 ± 2.5 % ID
  % ID Cerebellum: 0.15 % ID and 0.149 ± 0.054 % ID
  % ID Cerebrum total: 0.46 % ID and 0.456 ± 0.114 % ID
  % ID Cortex: 0.053 ± 0.025 % ID
  % ID Heart: 4.3 ± 0.3 % ID
  % ID Hippocampus: 0.017 ± 0.005 % ID
  % ID Intestines: 8.5 ± 0.2 % ID
  % ID Kidneys: 7.8 ± 1.1 % ID
  % ID Liver: 32.3 ± 3.2 % ID
  % ID Lungs: 1.8 ± 0.1 % ID
  % ID Rest of cerebrum: 0.387 ± 0.084 % ID
  % ID Spleen + Pancreas: 1.5 ± 0.3 % ID
  % ID Stomach: 1.8 ± 0.1 % ID
  % ID Striatum: 0.026 ± 0.012 % ID
  % ID Urine: 0.1 ± 0.0 % ID
  Total brain uptake: 0.64 % ID and 0.64 ± 0.1 % ID
  SUV Blood: 0.90 ± 0.02
  SUV Cerebellum: 1.59 ± 0.06
  SUV Cerebrum total: 1.12 ± 0.03
  SUV Cortex: 1.16 and 1.16 ± 0.04
  SUV Hippocampus: 1.11 ± 0.08
  SUV Striatum: 1.37 ± 0.05
[2]; 30 min p.i.
  % ID Blood: 3.9 ± 0.1 % ID
  % ID Carcass: 62.97 ± 2.4 % ID
  % ID Cerebellum: 0.152 ± 0.023 % ID
  % ID Cerebrum total: 0.637 ± 0.078 % ID
  % ID Cortex: 0.071 ± 0.006 % ID
  % ID Heart: 1.8 ± 0.1 % ID
  % ID Hippocampus: 0.021 ± 0.004 % ID
  % ID Intestines: 9.2 ± 1.4 % ID
  % ID Kidneys: 3.3 ± 0.2 % ID
  % ID Liver: 16.2 ± 0.4 % ID
  % ID Lungs: 0.8 ± 0.0 % ID
  % ID Rest of cerebrum: 0.511 ± 0.063 % ID
  % ID Spleen + Pancreas: 1.1 ± 0.1 % ID
  % ID Stomach: 1.8 ± 0.4 % ID
  % ID Striatum: 0.034 ± 0.005 % ID
  % ID Urine: 0.3 ± 0.0 % ID
  Total brain uptake: 0.80 ± 0.1 % ID
  SUV Blood: 0.50 ± 0.00
  SUV Cerebellum: 1.68 and 1.68 ± 0.05
  SUV Cerebrum total: 1.34 ± 0.03
  SUV Cortex: 1.39 and 1.39 ± 0.05
  SUV Hippocampus: 0.93 ± 0.02
  SUV Striatum: 1.39 ± 0.03
[2]; 60 min p.i.
  % ID Blood: 3.4 % ID and 3.4 ± 0.2 % ID
  % ID Carcass: 63.7 ± 1.8 % ID
  % ID Cerebellum: 0.172 ± 0.030 % ID
  % ID Cerebrum total: 0.598 ± 0.036 % ID
  % ID Cortex: 0.070 ± 0.002 % ID
  % ID Heart: 1.2 ± 0.1 % ID
  % ID Hippocampus: 0.026 ± 0.002 % ID
  % ID Intestines: 11.8 ± 0.0 % ID
  % ID Kidneys: 2.6 ± 0.2 % ID
  % ID Liver: 13.7 ± 1.3 % ID
  % ID Lungs: 0.7 ± 0.0 % ID
  % ID Rest of cerebrum: 0.466 ± 0.033 % ID
  % ID Spleen + Pancreas: 1.4 ± 0.5 % ID
  % ID Stomach: 2.0 ± 0.4 % ID
  % ID Striatum: 0.035 ± 0.005 % ID
  % ID Urine: 0.4 ± 0.1 % ID
  % ID present in liver and intestines: 25.5 % ID
  % ID present in the urinary system: 3.0 % ID
  Total brain uptake: 0.78 ± 0.0 % ID
  SUV Blood: 0.50 ± 0.00
  SUV Cerebellum: 1.52 ± 0.02
  SUV Cerebrum total: 1.19 ± 0.01
  SUV Cortex: 1.08 ± 0.01
  SUV Hippocampus: 0.94 ± 0.01
  SUV Striatum: 1.55 ± 0.01
